In brackets after ≈: the same amount, converted by molar mass.
Experiments:
RAW 264.7 macrophages = assay: SRB cytotoxicity on RAW 264.7 viability; assay type: cell-based; settings: Mus musculus, RAW264.7, read-out: RAW 264.7 viability IC50 value
Protocol: (§1) All malignancy cell lines were cultured in high glucose DMEM (Bio Whittaker, Verviers, Belgium) containing 10% FBS, 4-(2-hydroxyethyl)-1-piperazineethanesulfonic acid (HEPES) Buffer (10 mM), L-glutamine (2 mM), gentamicin (50 µg/mL), penicillin (100 U/mL), and streptomycin sulfate ([…]) from Sigma (St. Luis, MO, USA) whereas Sulforhodamine B was from Santa Cruz Biotechnology (Inc. Texas, USA). Surviving cancer cell lines provide numerous advantages; they provide a pure and continuous supply of cells, thus overcoming any ethical barriers concerning human tissue usage, and are cost-effective. For cytotoxicity screening, adherent monolayers of all procured malignancies’ cell lines were examined. Periodontal ligament fibroblasts (PDL) were used to determine selective cytotoxicity.
RAW 264.7 mouse macrophage cell line (ATCC® TIB-71) were cultured in high glucose DMEM supplemented with 10% (FBS), penicillin (100 U/mL), streptomycin (100 µg/mL), and L-glutamate (100 µg/mL) in a 37 °C humidified atmosphere with 95% air and 5% CO2. Confluent macrophages (2 × 10^5/well) were incubated with inflammation-priming lipopolysaccharide (LPS; Sigma, St. Luis, MO, USA) with either indomethacin as the reference agent[39] or treatment compounds at different concentrations (1.563-200 µM). Griess reagent was mixed with aliquots of cell culture media and incubated at R.T. for 10 min. Absorbance at 550 nm was determined using a microplate reader (Spectro Scan 80D UV-VIS spectrophotometer (Sedico Ltd., Nicosia, Cyprus). The nitrite concentration was determined by comparison with a sodium nitrite standard curve. SRB cytotoxicity protocol was performed for evaluation of the effect of the studied test compounds on RAW 264.7 viability.

[1] = test system: Candida albicans ATCC10231; assay: MIC determination, broth microdilution, absorbance 530 nm; assay type: cell-based; settings: ATCC10231, 24 h, read-out: C. albicans MIC value at 50% inhibition
Protocol: The compounds were tested against Gram-positive bacteria (Staphylococcus aureus ATCC 6538), Gram-negative bacteria (Escherichia coli ATCC 8739) and yeast (Candida albicansATCC10231). […] For bacterial strains, the EUCAST (2025) method was adapted. A few colonies of each bacterial culture previously grown on Mueller-Hinton agar for 24–48 h were suspended in normal saline and adjusted to 0.5 McFarland (1.5 × 10^8 CFU/mL). A 1/10 dilution was prepared in Mueller-Hinton broth (MHB) for the inoculation. In the wells of a 96-well flat-bottom microtiter plate, double serial dilutions of each compound were prepared in MHB. Each well was inoculated with the bacteria to achieve ca. 5 × 10^5 CFU/mL, and the plates were incubated at 37 °C overnight. Positive control (bacteria in culture medium only) and negative control (culture medium) were prepared. Each compound was tested in duplicate. After incubation, the plates were inspected visually for growth inhibition. To test the antimicrobial activity of DMSO, double serial dilutions of DMSO in broth medium were prepared and processed as the samples, but without the addition of the compounds. The antibacterial drug ciprofloxacin was used as a reference for comparison.
For Candida albicans, the same procedure applied to bacteria was used, except after inoculation, the plates were incubated at 35 °C for 24 h, and after incubation, the absorbance was measured at 530 nm using a plate reader. […] The absorbance of the wells was corrected by subtracting the absorbance of the blank. […] The antifungal drug fluconazole was used as a reference for comparison.

[2] = test system: Periodontal ligament fibroblasts (PDL); assay: SRB selective cytotoxicity in normal fibroblasts; assay type: cell-based; settings: SRB; normal PDL fibroblasts; unit printed for cisplatin cell and footnote
Protocol: as §1

A549 lung malignancy = assay: SRB antiproliferative assay; assay type: cell-based, human; settings: 72 h incubations; 3.125-200µM range; mean ± SD n = 4; read-out: Cytotoxicity (as of %Control) IC50 value, A549 lung malignancy
Protocol: as §1

[3] = test system: BT-549 invasive mammary malignancy; assay: SRB antiproliferative assay; assay type: cell-based, human; settings: 72 h incubations; 3.125-200µM range; mean ± SD n = 4; read-out: Cytotoxicity (as of %control) IC50 value, BT-549 invasive mammary malignancy
Protocol: as §1

Hela cervix malignancy = assay: SRB antiproliferative assay; assay type: cell-based, human; settings: 72 h incubations; 3.125-200µM range; mean ± SD n = 4; read-out: Cytotoxicity (as of %Control) IC50 value, Hela cervix malignancy
Protocol: as §1

MCF7 mammary malignancy = assay: SRB antiproliferative assay; assay type: cell-based, human; settings: 72 h incubations; 3.125-200µM range; mean ± SD n = 4; read-out: Cytotoxicity (as of %control) IC50 value, MCF7 mammary malignancy
Protocol: as §1

[4] = test system: MDA-MB-231 invasive mammary malignancy; assay: SRB antiproliferative assay; assay type: cell-based, human; settings: read-out: Cytotoxicity (as of %control) IC50 value, MDA-MB-231 invasive mammary malignancy; 72 h incubations; 3.125-200 µM range; mean ± SD n = 4
Protocol: as §1

[5] = test system: MDA-MB-453 invasive mammary malignancy; assay: SRB antiproliferative assay; assay type: cell-based, human; settings: 72 h incubations; 3.125-200µM range; mean ± SD n = 4; read-out: Cytotoxicity (as of %control) IC50 value, MDA-MB-453 invasive mammary malignancy
Protocol: as §1

[6] = test system: PANC1 pancreatic cell line; assay: SRB antiproliferative assay; assay type: cell-based, human; settings: 72 h incubations; 3.125-200µM range; mean ± SD n = 4; read-out: Cytotoxicity (as of %control) IC50 value, PANC1
Protocol: as §1

PC3 prostate malignancy = assay: SRB antiproliferative assay; assay type: cell-based, human; settings: 72 h incubations; 3.125-200µM range; mean ± SD n = 4; read-out: Cytotoxicity (as of %Control) IC50 value, PC3 prostate malignancy
Protocol: as §1

[7] = test system: SW480 colorectal cancer cell line; assay: SRB antiproliferative assay; assay type: cell-based, human; settings: 72 h incubations; 3.125-200µM range; mean ± SD n = 4; read-out: Cytotoxicity (as of %control) IC50 value, SW480
Protocol: as §1

T47D mammary malignancy = assay: SRB antiproliferative assay; assay type: cell-based, human; settings: 72 h incubations; 3.125-200µM range; mean ± SD n = 4; read-out: Cytotoxicity (as of %control) IC50 value, T47D mammary malignancy
Protocol: as §1

With `COc1ccc2c(c1)c(CC(=O)O)c(C)n2C(=O)c1ccc(Cl)cc1` [Indomethacin, reference compound] the IC50 (RAW 264.7 macrophages) was > 200 µM.

For `OC(Cn1cncn1)(Cn1cncn1)c1ccc(F)cc1F` [Fluconazole, reference compound], the MIC [1] was 3.9 µg/mL (≈ 12.7 µM).

`N.N.[Cl][Pt][Cl]` [Cisplatin, reference compound] gave an IC50 [2] of 5.6 µM, an IC50 (A549 lung malignancy) of 71.9 ± 2.9 µM and an IC50 [3] of 3.77 ± 0.25 µM. For the same compound, the IC50 (Hela cervix malignancy) was 27.3 ± 0.9 µM, the IC50 (MCF7 mammary malignancy) was 31.6 ± 0.44 µM and the IC50 [4] was 11.8 ± 1.4 µM. The IC50 [5] was 9.8 ± 0.1 µM, the IC50 [6] was 41.5 ± 0.4 µM and the IC50 (PC3 prostate malignancy) was 12.5 ± 0.2 µM. The IC50 [7] was 8.92 ± 0.24 µM and the IC50 (T47D mammary malignancy) was 34.2 ± 0.5 µM.
